In patent US9249125B2, “Pyrazole derivatives as p38 MAP inhibitors” (RESPIVERT LIMITED, priority 2012, dated 2016):

Assays:
[1] = target: T1, p38 MAPKα (Homo sapiens (Human), UniProt Q16539); experiment: Enzyme binding assay (Kinomescan) p38 MAPKα; conditions: read-out: % Inhibition for kinase binding at 500 nM p38 MAPKα
Description: (§1) The kinase enzyme binding activities of compounds disclosed herein were determined using a proprietary assay which measures active site-directed competition binding to an immobilized ligand (Fabian, M. A. et al., Nature Biotechnol., 2005, 23:329-336). These assays were conducted by DiscoverX (formerly Ambit; San Diego, Calif.). The percentage inhibition produced by incubation with a test compound is calculated relative to the non-inhibited control.

[2] = target: p38 MAPKγ (Homo sapiens (Human), UniProt P53778); experiment: Enzyme binding assay (Kinomescan) p38 MAPKγ; conditions: read-out: % Inhibition for kinase binding at 500 nM p38 MAPKγ
Description: (§2) These assays were conducted by DiscoverX (formerly Ambit; San Diego, Calif.). The percentage inhibition produced by incubation with a test compound is calculated relative to the non-inhibited control.

[3] = target: HCK (Homo sapiens (Human), UniProt P08631); experiment: Enzyme binding assay (Kinomescan) HCK; conditions: read-out: % Inhibition for kinase binding at 500 nM HCK
Description: as §1

[4] = target: T2, Syk (Homo sapiens (Human), UniProt P43405); experiment: Enzyme binding assay (Kinomescan) Syk; conditions: read-out: % Inhibition for kinase binding at 500 nM Syk
Description: as §1

[5] = target: T3, GSK3α (Homo sapiens (Human), UniProt P49840); experiment: Enzyme binding assay (Kinomescan) GSK3α; conditions: read-out: % Inhibition for kinase binding at 500 nM GSK3α
Description: as §1

[6] = target: B-Raf (Homo sapiens (Human), UniProt P15056); experiment: Enzyme binding assay (Kinomescan) B-Raf; conditions: read-out: % Inhibition for kinase binding at 500 nM B-Raf
Description: as §2

[7] = system: LPS-induced TNFα release in d-U937 cells; experiment: LPS-induced TNFα release in d-U937 cells; assay type: cell-based; conditions: Homo sapiens, dU937, relative to 10 μg/mL BIRB796, read-out: LPS Induced Release of Cytokine in d-937 Cells TNFα REC50
Outline: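 First, U937 monocytes undergo PMA treatment (100 ng/mL) for 48 to 72 hr to become macrophage-type. Next, compound at final concentrations is added for 2 hr, followed by LPS at 0.1 μg/mL for 4 hr. Finally, cytokines in the supernatant are quantified by ELISA against vehicle-treated cells.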

[8] = system: Poly I:C-induced ICAM-1 expression in BEAS2B cells; experiment: Poly I:C-induced ICAM-1 expression in BEAS2B cells; assay type: cell-based; conditions: Homo sapiens, BEAS-2B, read-out: Poly IC induced ICAM1 in BEAS2B IC50
Outline: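 Cell-based ELISA read at 450 nm minus 655 nm, divided by crystal violet OD595 to normalize for cell number, gave ICAM-1 levels. Readout was taken 18 hr after poly I:C (1 μg/mL, Oligofectamine) transfection of human bronchial BEAS2B cells pretreated 2 hr with test compound.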

[9] = system: d-U937 cells; experiment: Cell viability: MTT assay; assay type: cell-based, human; conditions: 1 μg/mL
Outline: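 MTT read-out (1 h, absorbance 550 nm) on d-U937 cells after pre-incubation with 1 or 10 μg/mL compound under two regimes: 4 h, 5% FCS, or 24 h, 10% FCS RPMI1640. Values are percent loss of viability relative to vehicle (0.5% DMSO), so increases are reported as negative.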

[10] = system: LPS-induced airways neutrophilia in mice; experiment: LPS-induced neutrophil accumulation in mice; assay type: in vivo; conditions: Test Substance at 0.2 mg/mL, intra tracheal, dosed 8 hr pre-LPS challenge
Description: Non-fasted Balb/c mice are dosed by the intra tracheal route with either vehicle, or the test substance at the indicated times (within the range 2-8 hr) before stimulation of the inflammatory response by application of an LPS challenge. At T=0, mice are placed into an exposure chamber and exposed to LPS (7.0 mL, 0.5 mg/mL solution in PBS) for 30 min). After a further 8 hr the animals are anesthetized, their tracheas cannulated and BALF extracted by infusing and then withdrawing from their lungs 1.0 mL of PBS via the tracheal catheter. Total and differential white cell counts in the BALF samples are measured using a Neubaur haemocytometer. Cytospin smears of the BALF samples are prepared by centrifugation at 200 rpm for 5 min at RT and stained using a DiffQuik stain system (Dade Behring). Cells are counted using oil immersion microscopy. Data for neutrophil numbers in BAL are shown as mean±S.E.M. (standard error of the mean). The percentage inhibition of neutrophil accumulation is calculated for each treatment relative to vehicle treatment.

[11] = target: T1, p38 MAPKα; experiment: p38 MAPKα enzyme inhibition (FRET, Z-LYTE); assay type: biochemical
[12] = target: cSrc (Homo sapiens (Human), UniProt P12931); experiment: c-Src enzyme inhibition (FRET, Z-LYTE); assay type: biochemical
Outline: (§3)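 Z-LYTE FRET kinase assay: enzyme (3000 or 2000 ng/mL stock, respectively) preincubated 2 h at RT with compound (4–0.004 μg/mL stocks), then FRET peptide plus ATP (800 μM stock for c-Src, 60 μM for Syk) added for 1 h. Protease development 1 h; phosphorylation from coumarin/fluorescein emission ratio.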

[13] = target: T2, Syk; experiment: Syk enzyme inhibition (FRET, Z-LYTE); assay type: biochemical
Outline: as §3

[14] = target: T3, GSK3α; experiment: GSK 3α enzyme inhibition (FRET, Z-LYTE); assay type: biochemical
Outline: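 Phosphorylation was read as the donor (coumarin) to acceptor (fluorescein) ratio after a 1 hr protease step destroying non-phosphorylated peptide. Before this, compound (4–0.004 μg/mL stocks) sat 2 hr at RT with GSK3α (500 ng/mL stock), followed by 1 hr kinase reaction with 8 μM peptide and 40 μM ATP stocks.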

[15] = system: LPS-induced IL-8 release in d-U937 cells; experiment: LPS-induced IL-8 release in d-U937 cells; assay type: cell-based; conditions: Homo sapiens, dU937, read-out: LPS Induced Release of Cytokine in d-937 Cells IL-8 IC50
Outline: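 Human monocytic U937 cells were differentiated to macrophage-type cells with PMA (100 ng/mL) for 48 to 72 hr, pre-treated with test compound for 2 hr, then stimulated 4 hr with E. coli O111:B4 LPS (0.1 μg/mL). Supernatant TNFα and IL-8 were measured by sandwich ELISA; REC50 came from concentration-response curves.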

[16] = system: PBMC cells; experiment: Cell mitosis assay; assay type: cell-based, human
Description: Peripheral blood mononucleocytes (PBMCs) from healthy subjects are separated from whole blood (Quintiles, London, UK) using a density gradient (Histopaque-1077, Sigma-Aldrich, Poole, UK). The PBMCs (3 million cells per sample) are subsequently treated with 2% PHA (Sigma-Aldrich, Poole, UK) for 48 hr, followed by a 20 hr exposure to varying concentrations of test compounds. At 2 hr before collection, PBMCs are treated with demecolcine (0.1 μg/mL) (Invitrogen, Paisley, UK,) to arrest cells in metaphase. To observe mitotic cells, PBMCs are permeabilised and fixed by adding Intraprep (50 μL) (Beckman Coulter, France), and stained with anti-phospho-histone 3 (0.26 ng/L) (#9701; Cell Signalling, Danvers, Mass.) and propidium iodide (1 mg/mL) (Sigma-Aldrich, Poole, UK,) as previously described (Muehlbauer P. A. and Schuler M. J., Mutation Research, 2003, 537:117-130). Fluorescence is observed using an ATTUNE flow cytometer (Invitrogen, Paisley, UK), gating for lymphocytes.

T3 sequence (P49840 whole entry): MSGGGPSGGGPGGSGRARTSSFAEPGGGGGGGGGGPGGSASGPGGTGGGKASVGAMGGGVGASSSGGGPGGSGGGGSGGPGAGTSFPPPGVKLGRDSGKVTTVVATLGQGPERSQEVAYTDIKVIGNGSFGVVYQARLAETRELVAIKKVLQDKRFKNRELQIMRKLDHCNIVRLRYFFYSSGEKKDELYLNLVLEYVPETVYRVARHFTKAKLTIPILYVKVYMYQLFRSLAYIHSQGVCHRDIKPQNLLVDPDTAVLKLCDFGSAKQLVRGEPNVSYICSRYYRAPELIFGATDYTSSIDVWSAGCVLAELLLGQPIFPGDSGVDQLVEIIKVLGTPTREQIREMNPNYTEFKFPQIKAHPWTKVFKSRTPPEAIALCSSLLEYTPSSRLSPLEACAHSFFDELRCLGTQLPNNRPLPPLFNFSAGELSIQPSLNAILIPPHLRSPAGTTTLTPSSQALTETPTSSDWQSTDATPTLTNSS
Chain of cSrc (P12931 whole entry, looked up): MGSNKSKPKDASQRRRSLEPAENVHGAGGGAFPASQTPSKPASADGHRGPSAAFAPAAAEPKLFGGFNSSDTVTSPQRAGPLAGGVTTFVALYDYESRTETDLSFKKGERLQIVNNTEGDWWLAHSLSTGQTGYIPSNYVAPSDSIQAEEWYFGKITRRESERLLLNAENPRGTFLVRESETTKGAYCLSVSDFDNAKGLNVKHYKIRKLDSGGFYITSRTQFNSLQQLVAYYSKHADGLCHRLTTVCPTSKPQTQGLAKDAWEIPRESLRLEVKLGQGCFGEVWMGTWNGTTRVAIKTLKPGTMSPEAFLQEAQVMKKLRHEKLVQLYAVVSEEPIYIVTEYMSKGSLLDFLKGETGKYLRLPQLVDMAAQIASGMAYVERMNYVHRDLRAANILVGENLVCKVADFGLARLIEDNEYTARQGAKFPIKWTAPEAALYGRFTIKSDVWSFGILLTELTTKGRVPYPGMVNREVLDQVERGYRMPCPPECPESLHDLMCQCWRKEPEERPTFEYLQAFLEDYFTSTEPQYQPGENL
T1 sequence (Q16539 whole entry): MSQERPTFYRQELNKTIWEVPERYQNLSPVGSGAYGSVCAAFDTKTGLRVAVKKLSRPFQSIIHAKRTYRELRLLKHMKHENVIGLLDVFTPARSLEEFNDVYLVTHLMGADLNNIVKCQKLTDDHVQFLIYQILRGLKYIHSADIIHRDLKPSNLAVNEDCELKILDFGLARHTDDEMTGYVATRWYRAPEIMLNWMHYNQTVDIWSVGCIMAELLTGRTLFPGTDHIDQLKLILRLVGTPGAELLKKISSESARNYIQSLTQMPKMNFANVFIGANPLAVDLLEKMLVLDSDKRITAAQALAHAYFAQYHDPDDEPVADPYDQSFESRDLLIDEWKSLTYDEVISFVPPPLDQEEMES
Chain of HCK (P08631 22-526): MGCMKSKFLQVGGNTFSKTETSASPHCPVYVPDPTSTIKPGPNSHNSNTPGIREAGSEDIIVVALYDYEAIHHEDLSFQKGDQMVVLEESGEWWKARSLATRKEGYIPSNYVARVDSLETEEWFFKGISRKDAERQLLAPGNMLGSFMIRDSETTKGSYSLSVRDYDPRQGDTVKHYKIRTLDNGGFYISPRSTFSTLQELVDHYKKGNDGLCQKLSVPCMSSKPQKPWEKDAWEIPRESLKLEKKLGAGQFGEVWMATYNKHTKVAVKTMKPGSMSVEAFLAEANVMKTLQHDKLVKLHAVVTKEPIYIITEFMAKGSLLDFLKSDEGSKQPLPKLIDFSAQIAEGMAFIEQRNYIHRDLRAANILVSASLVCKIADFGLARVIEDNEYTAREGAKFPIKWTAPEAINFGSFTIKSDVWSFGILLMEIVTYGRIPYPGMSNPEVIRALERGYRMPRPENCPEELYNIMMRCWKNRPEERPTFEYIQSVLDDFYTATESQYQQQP
Chain of B-Raf (P15056 whole entry): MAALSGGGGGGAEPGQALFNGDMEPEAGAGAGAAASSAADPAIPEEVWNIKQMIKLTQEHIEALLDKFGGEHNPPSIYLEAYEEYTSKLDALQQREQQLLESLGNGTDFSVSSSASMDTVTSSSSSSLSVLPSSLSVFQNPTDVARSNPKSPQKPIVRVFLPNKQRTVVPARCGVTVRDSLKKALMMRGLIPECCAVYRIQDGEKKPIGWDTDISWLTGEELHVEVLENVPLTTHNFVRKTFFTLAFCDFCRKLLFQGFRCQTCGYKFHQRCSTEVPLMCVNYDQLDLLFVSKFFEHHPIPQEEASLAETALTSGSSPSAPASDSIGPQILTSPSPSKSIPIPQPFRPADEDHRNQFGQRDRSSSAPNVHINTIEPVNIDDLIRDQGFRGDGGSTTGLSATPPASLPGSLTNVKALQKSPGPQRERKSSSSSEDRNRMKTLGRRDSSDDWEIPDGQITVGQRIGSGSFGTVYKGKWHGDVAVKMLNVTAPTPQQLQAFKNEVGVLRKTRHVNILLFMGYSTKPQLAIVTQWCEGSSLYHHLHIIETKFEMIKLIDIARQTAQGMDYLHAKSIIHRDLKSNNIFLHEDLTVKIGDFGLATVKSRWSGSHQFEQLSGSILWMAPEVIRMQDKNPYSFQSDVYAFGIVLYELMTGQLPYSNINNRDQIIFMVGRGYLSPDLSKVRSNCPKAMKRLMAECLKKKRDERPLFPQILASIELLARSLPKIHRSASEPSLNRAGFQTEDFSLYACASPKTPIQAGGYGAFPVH
Chain of p38 MAPKγ (P53778 whole entry): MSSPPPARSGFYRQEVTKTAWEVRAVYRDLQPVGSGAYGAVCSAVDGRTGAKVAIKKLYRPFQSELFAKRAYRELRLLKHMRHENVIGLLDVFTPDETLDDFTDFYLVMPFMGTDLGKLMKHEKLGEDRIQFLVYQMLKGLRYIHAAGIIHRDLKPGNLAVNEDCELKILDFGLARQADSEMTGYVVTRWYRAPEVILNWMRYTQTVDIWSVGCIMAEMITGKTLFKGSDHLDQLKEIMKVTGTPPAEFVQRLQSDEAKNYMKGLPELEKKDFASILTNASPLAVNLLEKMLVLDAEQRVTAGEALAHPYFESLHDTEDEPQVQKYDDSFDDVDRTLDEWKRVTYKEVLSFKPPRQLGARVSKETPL

Row | Compound | inhibition at 0.5 µM [6] [%] | EC50 [7] [nM] | IC50 [11] [nM] | IC50 [12] [nM] | IC50 [13] [nM] | IC50 [14] [nM] | IC50 [15] [nM] | Mitosis Assay % inhibition in PBMC cells at 5 μg/mL [16] [%] | inhibition at 0.5 µM [1] [%] | inhibition at 0.5 µM [2] [%] | inhibition at 0.5 µM [3] [%] | inhibition at 0.5 µM [4] [%] | inhibition at 0.5 µM [5] [%] | IC50 [8] [nM] | MTT Assay Cell viability at time point in d-U937 cells 4 h [9] | MTT Assay Cell viability at time point in d-U937 cells 24 h [9] | % Inhibition of neutrophil accumulation in BAL [10] [%] | Neutrophil numbers in BAL (+/−SEM) [10]
1 | CNC(=O)c1cc(Oc2ccc(NC(=O)Nc3ccc(Cl)c(C(F)(F)F)c3)cc2)ccn1 [Sorafenib] |  |  |  |  |  |  |  |  | 77 | 28 | 22 | 14 | 26 |  |  |  |  | 
2 | COCC(=O)Nc1cc(Oc2ccc(NC(=O)Nc3cc(C(C)(C)C)nn3-c3ccc(C)cc3)c3ccccc23)ccn1 [Reference Compound, N-(4-(4-(3-(3-tert-butyl-1-p-tolyl-1H-pyrazol-5-yl)ureido)naphthalen-1-yloxy)pyridin-2-yl)-2-methoxyacetamide, reference compound] | 70 | 0.13 |  |  |  |  |  |  | 100 |  | 100 | 95 | 84 | 2.1 | −ve (−ve and +ve indicate that the value is below and above respectively, the no significant effect threshold, defined as 30% inhibition at 1 μg/mL at the time point indicated.) | +ve (−ve and +ve indicate that the value is below and above respectively, the no significant effect threshold, defined as 30% inhibition at 1 μg/mL at the time point indicated.) | 60 | 5.6 ± 0.86 ×10^5/mL
3 | COc1ccc(-n2nc(C(C)C)cc2NC(=O)Nc2ccc(Oc3ccnc(Nc4cc(C)c5[nH]ncc5c4)n3)c3ccccc23)cc1 [Example 9, 1-(3-Isopropyl-1-(4-methoxyphenyl)-1H-pyrazol-5-yl)-3-(4-((2-((7-methyl-1H-indazol-5-yl)amino)pyrimidin-4-yl)oxy)naphthalen-1-yl)urea] |  | 1.6 | 38 | 4 | 7 | > 15600 | 3.9 | 23.7 |  |  |  |  |  | 1.2 | −ve (−ve and +ve indicate that the value is below and above respectively, the no significant effect threshold, defined as 30% inhibition at 1 μg/mL at the time point indicated.) | −ve (−ve and +ve indicate that the value is below and above respectively, the no significant effect threshold, defined as 30% inhibition at 1 μg/mL at the time point indicated.) |  | 

More lines, main results first:

Row | inhibition at 0.5 µM [6] [%] | EC50 [7] [nM] | IC50 [11] [nM] | IC50 [12] [nM] | IC50 [13] [nM] | IC50 [14] [nM] | IC50 [15] [nM] | Mitosis Assay % inhibition in PBMC cells at 5 μg/mL [16] [%] | Compound | inhibition at 0.5 µM [1] [%] | inhibition at 0.5 µM [2] [%] | inhibition at 0.5 µM [3] [%] | inhibition at 0.5 µM [4] [%] | inhibition at 0.5 µM [5] [%] | IC50 [8] [nM] | MTT Assay Cell viability at time point in d-U937 cells 4 h [9] | MTT Assay Cell viability at time point in d-U937 cells 24 h [9] | % Inhibition of neutrophil accumulation in BAL [10] [%] | Neutrophil numbers in BAL (+/−SEM) [10]
4 |  | 2.5 | 33 | 13 | 14 | 3250 | 2.7 | 62.4 | CC(C)(C)c1cc(NC(=O)Nc2ccc(Oc3cc(Nc4ccc5[nH]ncc5c4)ncn3)c3ccccc23)n(-c2ccc(OCCN3CCOCC3)cc2)n1 [Example 70, 1-(4-((6-((1H-indazol-5-yl)amino)pyrimidin-4-yl)oxy)naphthalen-1-yl)-3-(3-(tert-butyl)-1-(4-(2-morpholinoethoxy)phenyl)-1H-pyrazol-5-yl)urea] |  |  |  |  |  | 4.1 | −ve (−ve and +ve indicate that the value is below and above respectively, the no significant effect threshold, defined as 30% inhibition at 1 μg/mL at the time point indicated.) | −ve (−ve and +ve indicate that the value is below and above respectively, the no significant effect threshold, defined as 30% inhibition at 1 μg/mL at the time point indicated.) |  | 
5 |  | 17.2 | 92 | 14 | 75 | 2100 | 2.3 | 41.2 | Cc1ccc(-n2nc(C(C)(C)C)cc2NC(=O)Nc2ccc(Oc3ccnc(Nc4ccc5[nH]nnc5c4)n3)c3ccccc23)cc1 [Example 36, 1-(4-((2-((1H-benzo[d][1,2,3]triazol-5-yl)amino)pyrimidin-4-yl)oxy)naphthalen-1-yl)-3-(3-(tert-butyl)-1-(p-tolyl)-1H-pyrazol-5-yl)urea] |  |  |  |  |  | 6.3 | −ve (−ve and +ve indicate that the value is below and above respectively, the no significant effect threshold, defined as 30% inhibition at 1 μg/mL at the time point indicated.) | −ve (−ve and +ve indicate that the value is below and above respectively, the no significant effect threshold, defined as 30% inhibition at 1 μg/mL at the time point indicated.) |  | 
6 |  | 1.6 | 44 | < 1 | < 1 | 267 | 4.1 | 15.4 | CC(C)(C)c1cc(NC(=O)Nc2ccc(Oc3ccnc(Nc4ccc5c(c4)NC(=O)C5)n3)c3ccccc23)n(-c2ccc(OCCN3CCOCC3)nc2)n1 [Example 90, 1-(3-(tert-butyl)-1-(6-(2-morpholinoethoxy)pyridin-3-yl)-1H-pyrazol-5-yl)-3-(4-((2-((2-oxoindolin-6-yl)amino)pyrimidin-4-yl)oxy)naphthalen-1-yl)urea] |  |  |  |  |  | 14.6 | −ve (−ve and +ve indicate that the value is below and above respectively, the no significant effect threshold, defined as 30% inhibition at 1 μg/mL at the time point indicated.) | −ve (−ve and +ve indicate that the value is below and above respectively, the no significant effect threshold, defined as 30% inhibition at 1 μg/mL at the time point indicated.) |  | 
